Experimental data from patent publication US20260069606A1, “Oxidative Stress and Diabetes Treatment with Cobinamide” (The Regents of the University of California, priority 2022, published 2026).

Assays:
[1] = system: H9c2 rat embryonal cardiomyocytes; assay: Mitochondrial superoxide content, MitoSOX Red fluorescence; type: cell-based
Protocol: FIGS. 3A-3H. […] FIGS. 3A-3B. […] FIG. 3A. […] FIG. 3B. […] FIGS. 3C-3D. […] FIG. 3D. […] FIGS. 3E-3F. […] FIG. 3E. Representative blots are shown. […] FIG. 3F. […] FIG. 3G. […] FIG. 3H.
H9c2 cells were plated on glass cover slips in 24 well dishes, and 16 h later the medium was changed to phenol red-free DMEM supplemented with 20 mM Hepes, 0.1% fetal bovine serum, and 0.5% bovine serum albumin. […] MitoSOX Red is a dihydroethidium derivative containing triphenyl-phosphonium, which localizes it to respiring mitochondria. Its reaction with O2·^− yields 2-hydroxy-mitoethidium (2-OH-Mito-E″), whereas its reaction with other oxidative species yields mitoethidium (Mito-E^+)^67. These two oxidative derivatives have overlapping fluorescence spectra, but they can be distinguished by high performance liquid chromatography (HPLC)^68. Rotenone increased 2-OH-Mito-E^+ about two-fold, without increasing Mito-E^+. Thus, any increased fluorescence observed on treating cells with rotenone could be ascribed to an increase in 2-OH-Mito-E^+, and decreased fluorescence by an anti-oxidant in rotenone-treated cells was likely from a decrease in 2-OH-Mito-E^+.
The cells were then washed once with PBS, placed back in the DMEM experimental medium, and incubated with the indicated drugs for 30 min. At the end of the incubation period, nuclei of both the MitoSOX Red- and JC-1-treated cells were stained with […] 4′,6-diamidino-2-phenyl-indole (DAPI) for 3 min, washed once with PBS, and returned to the DMEM experimental medium. The cover slips were removed from the wells, mounted in the DMEM experimental medium, and red (MitoSOX Red and JC-1 aggregates), green (JC-1 monomers), and blue (DAPI) fluorescence intensity was assessed using a Keyence BZ-X700 fluorescence microscope at the following paired excitation/emission wavelengths, respectively: 560/630, 490/525, and 360/460 nm.
To assess if cobinamide reduces oxidative stress in cells and to compare its […] efficacy to that of cobalamin, imisopasem, and MnTBAP, several sets of experiments were performed. First, whether cobinamide reduces mitochondrial-generated O2·^− was evaluated using the fluorescent probe MitoSOX Red. H9c2 rat embryonal cardiomyocytes were treated with rotenone, an inhibitor of complex I, to increase mitochondrial O2·^−. […] Monitoring the UV-visible spectrum of cobinamide is a sensitive means to assess ligand binding^38.

D. melanogaster = assay: Survival of fruit flies during paraquat poisoning; type: in vivo; details: 20 mM paraquat with 0.8 mM drug in food, over 7 d
Protocol: The number of live flies was counted each day for 7 d. The experiment was repeated seven times, for a total of 70 flies per condition. The percent surviving flies was calculated; error bars represent standard deviations and are shown in one direction only for sake of clarity. […] Chi, cobinamide in Panel A and histidyl-cobinamide in Panels B-K; Imp, imisopasem; MnTP, MnTBAP; CbL, cobalamin; DNPH, 2,4-dinitrophenylhydrazine; ND, non-diabetic; D, diabetic; Veh, vehicle.
To test cobinamide in a whole animal, D. melanogaster was selected for initial studies, and oxidative stressed was increased in the files by administering paraquat in their food. Cobinamide was again compared to imisopasem, MnTBAP, and hydroxocobalamin, all administered in food.

[2] = system: streptozotocin diabetic mice; assay: Fasting blood glucose and intraperitoneal glucose tolerance test; type: in vivo; details: fasting blood glucose and IPGTT after three months
Text: The water was replenished twice a week.
Over the three-month treatment period, the non-diabetic mice gained an average of 4.1±0.8 g. while the diabetic mice lost an average of 0.3 g, with wide variation in weight change among the latter mice.

[3] = mouse, in vivo
Protocol: It seemed possible, therefore, that the cobinamide administered to the mice could have increased their blood pressure, since ·NO is a potent vasodilator. Because diabetes can increase blood pressure, these studies were performed on a parallel set of non-diabetic mice of the same strain and sex and using the same concentration of histidyl-cobinamide in the drinking water as in the above-described studies.

[4] = second order; literature values; cited from earlier work
[5] = mice, same amount of cobinamide for six months; cited from earlier work
[6] = Plasma cobinamide concentration in mice given cobinamide in drinking water; details: discussion summary
Protocol: Male C57BL/6NHsd mice (20 weeks old) were housed three to four animals per cage in a temperature-controlled environment with a 12-h light/dark cycle and fed standard rodent chow with ad libitum access to food and water. After one week of acclimatization, mice weighing 30±3 g were injected intraperitoneally for five consecutive days with either saline (n=20) or 50 mg/kg streptozotocin (n=20) 69. […] The 16 diabetic mice and a corresponding number of the saline-injected, non-diabetic mice were split randomly in half to receive either plain drinking water or histidyl-cobinamide in the drinking water. The four groups of animals are referred to as: diabetic vehicle (D-Veh); diabetic, cobinamide-treated (D-Cbi); non-diabetic, vehicle (ND-Veh); and non-diabetic, cobinamide-treated (ND-Cbi). The histidyl-cobinamide concentration was 1 mM for the ND-Cbi mice, but because the diabetic mice drank more than the non-diabetic mice, the cobinamide concentration for the D-Cbi mice was decreased accordingly. The water was replenished twice a week.
After three months of treatment, the mice were weighed, fasted for 6 h, and then underwent an intraperitoneal glucose tolerance test (IPGTT) using 2 g/kg of a 20% glucose solution. Blood glucose concentrations were measured just before the glucose injection (time 0, fasting specimen) and at 15, 30, 60, and 120 min following the injection. […] Two days later, the mice were euthanized by inducing deep anesthesia with 200 mg/kg ketamine and 40 mg/kg xylazine administered by intraperitoneal injection, followed by exsanguination via an open cardiac puncture.
Type I diabetic mice were generated using streptozotocin, and then provided cobinamide in the drinking water for three months.

Which “MitoSOX red fluorescence in rotenone-treated cells” value ([1]; H9c2, 5 μM rotenone 30 min, drugs at 2.5 μM) does the source give for `C/C1=C2/[N-][C@H]([C@H](CC(N)=O)[C@@]2(C)CCC(=O)NC[C@@H](C)O)[C@]2(C)N=C(/C(C)=C3N=C(/C=C4N=C1[C@@H](CCC(N)=O)C\4(C)C)[C@@H](CCC(N)=O)[C@]\3(C)CC(N)=O)[C@@H](CCC(N)=O)[C@]2(C)CC(N)=O.[Co+3]` [cobinamide, aquohydroxo-cobinamide] here?
The value was “markedly reduced fluorescence”.

And the “MitoSOX red fluorescence, drug alone” value ([1]; H9c2, vehicle-treated cells without rotenone, 2.5 μM)?
The value was “no change”.

What about the “Mortality of paraquat-exposed flies” value (D. melanogaster) of the same compound?
The value was less than 30%.

What about the “Glucose intolerance versus mice not receiving drug” value [2] of the same compound?
Its value is “same degree of glucose intolerance”.

And the Blood pressure [3]?
The Blood pressure was “no change in blood pressure”.

And the “Rate constant, reaction with nitric oxide (·NO), published” value [4]?
The value was 2.4 × 10^8 (51) M^−1 s^−1.

What about the Hematological parameters [5] of the same compound?
Its Hematological parameters is “did not affect hematological parameters”.

What about the “Concentration in the plasma of mice that received cobinamide in drinking water” value [6] of the same compound?
The value was 100 to 500 nM.
